Values of other authors, collected in US20220354784A1, “STABLE LATANOPROST COMPOUND OPHTHALMIC COMPOSITIONS” (Somerset Therapeutics LLC, priority 2021, published 2022).

Conditions: patients starting on monotherapy

| SMILES | rate of adjunctive medication use [%] |
| --- | --- |
| CCNC(=O)CCC/C=C\C[C@@H]1[C@@H](/C=C/[C@@H](O)CCc2ccccc2)[C@H](O)C[C@@H]1O [bimatoprost] | 23.2 |
| CC(C)OC(=O)CCC/C=C\C[C@@H]1[C@@H](/C=C/[C@@H](O)COc2cccc(C(F)(F)F)c2)[C@H](O)C[C@@H]1O [travoprost] | 22.5 |
| CC(C)OC(=O)CCC/C=C\C[C@@H]1[C@@H](CC[C@@H](O)CCc2ccccc2)[C@H](O)C[C@@H]1O [latanoprost, isopropyl (Z)-7[(1R,2R,3R,5S)3,5-dihydroxy-2-[(3R)-3-hydroxy-5-phenylpentyl]cyclopentyl]-5-heptanoate] | 30.2 |
